# Where two headings read alike, the source gives them in different places. Where no end group is shown, it is not given here.
# T1: recombinant MBP-calreticulin fragment 120-180 (Seq. I.D. No. 5) (human, UniProt P14211 137-197 (mouse entry))
# T1 construct: also called MBP-120-180 calreticulin; 61 amino acid calreticulin fragment
# T1 sequence: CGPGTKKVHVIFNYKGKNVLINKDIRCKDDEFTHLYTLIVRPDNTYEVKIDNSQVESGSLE
# B1: peptide KLGFFKR (Seq. I.D. No. 13) (peptide)
# peptide: KLGFFKR
# notes: Synthetic peptide, coupled to Sepharose in a mixture with the two other peptides; also called portion of an integrin
# B2: peptide KVFFKR (Seq. I.D. No. 32) (peptide)
# peptide: KVFFKR
# notes: Synthetic peptide, coupled to Sepharose in a mixture with the two other peptides; also called portion of the glucocorticoid receptor
# B3: Gel-eluted calreticulin: natural calreticulin from purified VDS-O B cell line supernatant, 55 kDa band eluted from gel (protein)
# chain: EPAVYFKEQFLDGDGWTSRWIESKHKSDFGKFVLSSGKFYGDEEKDKGLQTSQDARFYALSASFEPFSNKGQTLVVQFTVKHEQNIDCGGGYVKLFPNSLDQTDMHGDSEYNIMFGPDICGPGTKKVHVIFNYKGKNVLINKDIRCKDDEFTHLYTLIVRPDNTYEVKIDNSQVESGSLEDDWDFLPPKKIKDPDASKPEDWDERAKIDDPTDSKPEDWDKPEHIPDPDAKKPEDWDEEMDGEWEPPVIQNPEYKGEWKPRQIDNPDYKGTWIHPEIDNPEYSPDPSIYAYDNFGVLGLDLWQVKSGTIFDNFLITNDEAYAEEFGNETWGVTKAAEKQMKDKQDEEQRLKEEEEDKKRKEEEEAEDKEDDEDKDEDEEDEEDKEEDEEEDVPGQAKDEL
# B4: Cleaved calreticulin: calreticulin cleaved (factor Xa) and purified from MBP-calreticulin (protein, UniProt P27797 18-417, looked up)
# Calreticulin: B3 chain
# B5: peptide KAFFKR (Seq. I.D. No. 33) (peptide)
# peptide: KAFFKR
# notes: Synthetic peptide, coupled to Sepharose in a mixture with the two other peptides; also called portion of the estrogen receptor
# How the values were obtained:
# [1] = test system: human B cell lines VDS-O and CA-46; assay: Proliferation of indicator B cell lines; type: cell-based; conditions: 1-100 μg/ml
# From the text: Human mononuclear cells, and mononuclear cells enriched for T or B lymphocytes, were used in proliferation assays in the presence of phytohemagglutinin (Sigma), pokeweed-mitogen (Sigma), or Epstein-Barr virus (B95-8 strain), as described (Tosato et al., J. Immunol. 140:4329-4336, 1988). The lymphoblastoid cell line VDS-O (Tosato, et al., J. Immunol. 137:2037-2042, 1986); the Burkitt lymphoma cell lines CA46, BL-41, KK124, Ag876, SHO (Cherney et al., Cancer Res. 57:2508-2515, 1997); the T-cell line Molt-4 (ATCC); the Hodgkin's lymphoma cell line Hs445 (ATCC); the prostate adenocarcinoma cell lines TSU-Prl (from A. Passaniti, NIH, Baltimore, Md.), Du145 (ATCC), and PC3 (ATCC); and the acute promyelocytic leukemia cell line HL-60 (ATCC) were cultured in RPMI 1640 medium with 10% heat inactivated fetal calf serum (BioWhittaker), 20 mM L-glutamine (Sigma) and 5 μg/ml gentamicin, and tested in 3-5 day proliferation assays at cell densities ranging from 300 to 2400 cells/well. All other cell lines were tested for proliferation in 3-day assays. The neuroblastoma cell line SKNMC (ATCC) was cultured in EMEM medium (BioWhittaker) with 10% heat inactivated fetal calf serum (BioWhittaker) and 5 μg/ml gentamicin (Sigma) and tested for proliferation at 125-1000 cells/well. The lung adenocarcinoma cell line A549 (ATCC) was cultured in F-12 Nutrient Mixture (HAM, GIBCO BRL) with 10% heat inactivated fetal calf serum (BioWhittaker) and 5 μg/ml gentamicin (Sigma), and tested for proliferation at 250-2000 cells/well. The breast adenocarcinoma MDA-MB-468 (ATCC) and the Wilms tumor SK-NEP-1(ATCC) cell lines were cultured in Leibovitz L-15 medium (GIBCO BRL) supplemented with 10% heat inactivated fetal calf serum (BioWhittaker) and 5 μg/ml gentamicin (Sigma), and tested for proliferation at 300-2500 cells/well. The colon carcinoma cell line SW480 (ATCC), the melanoma cell line A-375 (ATCC), and human foreskin fibroblasts (H568, ATCC) were cultured in DMEM medium (BioWhittaker) with 10% heat inactivated fetal calf serum (BioWhittaker) and 5 μg/ml gentamicin (Sigma), and were tested for proliferation at 500-4000 cells/well. All cell lines tested mycoplasma negative.
# [2] = test system: Fetal bovine heart endothelial cells
# Procedure: Fetal bovine heart endothelial cells (American Type Culture Collection, ATCC, Manassas, Va.) were grown through passage 12 in DMEM culture medium (BioWhittaker, Walkersville, Md.) containing 10% heat inactivated fetal bovine serum (BioWhittaker), 100 ng/ml bFGF (R&D Systems, Minneapolis, Minn.), and 5 μg/ml gentamicin (Sigma). For proliferation assays, cells were trypsinized (Trypsin/EDTA, Gibco BRL), washed, suspended in culture medium (DMEM containing 10% heat inactivated fetal bovine serum and 5 μg/ml gentamicin), plated (800 cells/well in 0.2 ml culture medium) in triplicate onto 96 well plates, and incubated for 5 days.
# [3] = biological target: T1, recombinant MBP-calreticulin fragment …; assay: affinity column carrying a mixture of the three peptides on Sepharose
# Procedure: To this end, purified preparations of the VDS-O cell line containing full length calreticulin (Seq. I.D. No. 3) as well as N-terminal calreticulin fragments were prepared and tested to determine how these components were retained over an affinity column. To prepare the affinity column, three peptides were synthesized ([…], Seq. I.D. 13; KAFFKR, Seq. I.D. No. 33; and KVFFKR, Seq. I.D. No. 32), purified, and coupled to CNBr-activated Sepharose 4B (Pharmacia). […] The purified preparations of VDS-O cell line containing both full length as well as N-terminal calreticulin fragments were then loaded on the column (Starting material).
# To address this issue further, recombinant MBP-calreticulin fragment 120–180 (Seq. I.D. No. 5) was tested for its ability to bind to the affinity column described supra.
# [4] = test system: peptides KLGFFKR, KAFFKR and KVFFKR coupled to CNBr-activated Sepharose; assay: Affinity column binding to integrin / steroid receptor motif peptides; conditions: elution with 20 mM EDTA
# From the text: FIG. 18 is a Western blot analysis of fractions obtained through affinity purification over a column containing KXaa1FFXaa2R (Seq. I.D. No. 11) and KXaa1GFFKR (Seq. I.D. No. 10). Purified supernatants from the VDS-0 cell line containing full length calreticulin and N-terminal fragments of calreticulin were affinity purified over a mixture of peptides KLGFFKR (Seq. I.D. No. 13), KAFFKR (Seq. I.D. No. 33) and KVFFKR (Seq. I.D. No. 32) coupled to CNBr-activated Sepharose. Starting material (lane 1), unbound material (lanes 2, 3) and bound material (lanes 4, 5) were separated by SDS-PAGE, transferred to nitrocellulose, and subsequently stained with a rabbit antiserum against human calreticulin.
# To this end, purified preparations of the VDS-O cell line containing full length calreticulin (Seq. I.D. No. 3) as well as N-terminal calreticulin fragments were prepared and tested to determine how these components were retained over an affinity column. To prepare the affinity column, three peptides were synthesized ([…], Seq. I.D. 13; KAFFKR, Seq. I.D. No. 33; and KVFFKR, Seq. I.D. No. 32), purified, and coupled to CNBr-activated Sepharose 4B (Pharmacia). First, the ability of calreticulin, purified from the culture supernatant of the lymphoblastoid cell line VDS-O, to selectively bind to the column and be eluted by a buffer solution containing 20 mM EDTA and 100 mM NaCl, was verified. […]
# [5] = test system: bFGF-induced neovascularization; assay: Murine Matrigel assay of angiogenesis in vivo; parameters: species or system BALB/c nude mice; conditions: Exp. 4; concentration not given; bFGF 150 ng/ml
# Procedure: The murine Matrigel assay (Passaniti et al., Lab. Invest. 67:519-528, 1992) was employed to evaluate the effects of calreticulin and calreticulin fragments on angiogenesis in vivo. The Matrigel assay was performed as described by Angiolillo et al. (J. Exp. Med. 182:155-162, 1995). Matrigel, a crude extract of the Englebreth-Holm-Swarm tumor, was obtained from Collaborative Biomedical Products, Becton Dickinson Labware, Bedford, Mass. An aliquot (0.5 ml) of Matrigel alone or with desired additives was injected subcutaneously (s.c.) into the mid abdominal region of female BALB/c nude mice, 6-8 weeks old. Five mice were injected with each mixture. After 5-7 days, the animals were sacrificed, Matrigel plugs were removed, fixed in 10% neutral buffered formalin solution (Sigma), and embedded in paraffin. Tissues were sectioned (5μ thickness), and slides stained with Masson's trichrome. Quantitative analysis of angiogenesis in Matrigel plugs utilized a computerized semi-automated digital analyzer (Optomax, 40-10 System, Hollis, N.H.). The instrument was adjusted to evaluate a circular area measuring […] of Matrigel, and within this area, to measure the area occupied by cells. For each plug, 12-15 distinct fields were evaluated. The fields were randomly selected from each plug, and the operator was blind to the experimental design. The average area occupied by cells/1.26×10^5 […] Matrigel field was calculated. Results are expressed as the mean area occupied by cells/Matrigel field.
# Matrigel plugs were fixed in 10% neutral buffered formalin solution (Sigma), embedded in paraffin, sectioned at 4 μm, and stained with Masson's trichrome by standard methods.
# [6] = Table 3 exp. 1, 50 μg/ml, bFGF 25 ng/ml, 5 days
# [7] = Table 3 exp. 1, 100 μg/ml, bFGF 25 ng/ml, 5 days
# [8] = Table 3 exp. 2, 100 μg/ml, bFGF 25 ng/ml, 5 days
# [9] = Table 3 exp. 1, 12.5 μg/ml, bFGF 25 ng/ml, 5 days
# [10] = Table 3 exp. 1, 25 μg/ml, bFGF 25 ng/ml, 5 days
# [11] = Table 3 exp. 2, 50 μg/ml, bFGF 25 ng/ml, 5 days
# [12] = Table 1 exp. 3, estimated concentration 0.160 μg/ml, bFGF 25 ng/ml, 5 days
# [13] = Table 1 exp. 1-2, 1 μg/ml, bFGF 25 ng/ml, 5 days
molecule,measurement,setting,value
GPGTKKVHVIFNYKGKNVLINKDIRCKDDEFTHLYTLIVRPDNTYEVKIDNSQVESGSLE [60 amino acid peptide],effect on proliferation of B cell lines VDS-O and CA-46,[1],neither peptide inhibited the proliferation
same,effect on proliferation of B cell lines VDS-O and CA-46,[1]; listed as 60 amino acid fragment,minimal effect
same,Inhibition (%),[2]; [6],40.1%
same,Proliferation (mean cpm/culture),[2]; [6],"8,318 cpm/culture"
same,Inhibition (%),[2]; [7],87.9%
same,Proliferation (mean cpm/culture),[2]; [7],"1,688 cpm/culture"
same,Inhibition (%),[2]; [8],59.5%
same,Proliferation (mean cpm/culture),[2]; [8],"3,709 cpm/culture"
NYKGKNVLINKDIRCKDDEFTHLYTLIVRPDNTYEVKIDNSQVESGSLE [49 amino acid peptide],effect on proliferation of B cell lines VDS-O and CA-46,[1],neither peptide inhibited the proliferation
same,effect on proliferation of B cell lines VDS-O and CA-46,[1]; listed as 49 amino acid fragment,minimal effect
same,Inhibition (%),[2]; [9],30.2%
same,Proliferation (mean cpm/culture),[2]; [9],"9,743 cpm/culture"
same,Inhibition (%),[2]; [10],56.7%
same,Proliferation (mean cpm/culture),[2]; [10],"6,037 cpm/culture"
same,Inhibition (%),[2]; [6],68.7%
same,Proliferation (mean cpm/culture),[2]; [6],"4,368 cpm/culture"
same,Inhibition (%),[2]; [11],45.4%
same,Proliferation (mean cpm/culture),[2]; [11],"5,004 cpm/culture"
RANTES [reference compound],inhibitory effect of control peptide in endothelial cell assays,[2],no inhibitory effect
same,Proliferation (mean cpm/culture),[2]; [7],"16,443 cpm/culture"
same,Proliferation (mean cpm/culture),"[2]; Table 3 exp. 2, 12.5 μg/ml, bFGF 25 ng/ml, 5 days","13,644 cpm/culture"
same,Proliferation (mean cpm/culture),[2]; [11],"10,291 cpm/culture"
light chain of human ferritin: recombinant purified light chain of human ferritin [reference compound],effect on the proliferation of endothelial cells,"[2]; 1 pg to 1 μg/ml, not shown",minimal effect
B1,binding result,[3],no binding
B2,binding result,[3],no binding
B3,Inhibition (%),[2]; [12],81%
same,Proliferation (mean cpm/culture),[2]; [12],"11,226 cpm/culture"
same,binding to peptide affinity column,[4],retained by the column
B4,Inhibition (%),[5],58%
same,Mean Surface Area Occupied by Cells,[5],"3,464 mm^2/1.26 × 10^5 mm^2"
same,Inhibition (%),[2]; [13],72%
same,Proliferation mean cpm/culture (±SD),[2]; [13],"7,088 (1846) cpm/culture"
B5,binding result,[3],no binding

# Source: patent US6867180B1, “Use of calreticulin and calreticulin fragments to inhibit endothelial cell growth and angiogenesis, and suppress tumor growth” (The United States of America as represented by the …, priority 1998, dated 2005)
